This assay concerns Eμ-Myc-GAPDHlow lymphoma. Briefly: Survival of OxPhos Eμ-Myc-GAPDHlow-bearing mice treated with Temsirolimus in vivo. The conditions noted are these: data not shown.

For the compound `CO[C@H]1C[C@@H]2CC[C@@H](C)[C@@](O)(O2)C(=O)C(=O)N2CCCC[C@H]2C(=O)O[C@H]([C@H](C)C[C@@H]2CC[C@@H](OC(=O)C(C)(CO)CO)[C@H](OC)C2)CC(=O)[C@H](C)/C=C(\C)[C@@H](O)[C@@H](OC)C(=O)[C@H](C)C[C@H](C)/C=C/C=C/C=C/1C` [Temsirolimus], the survival result was “significantly increases”.
